Laboratory results reported in patent publication US9233964B2, “Sulfamide piperazine derivatives as protein tyrosine kinase inhibitors and pharmaceutical use therof” (LEO PHARMA A/S, priority 2011, dated 2016).

How the values were obtained:
Type in all cases: biochemical
JAK1 = target: T1, JAK1 (Homo sapiens, UniProt P23458); assay: JAK kinase assay (HTRF, phosphorylation of synthetic peptide), JAK1; conditions: catalytic domain, ATP at Km (7 μM); read-out: JAK1 kinase inhibitory activity (EC50)
T1 construct: JAK1 (aa 850-1154) and TYK2 (aa 871-1187) are expressed with an N-terminally fused GST-tag; GST (N); purchased Carna Biosciences, Inc; host or cells: baculovirus expression system
T1 sequence (P23458 850-1154): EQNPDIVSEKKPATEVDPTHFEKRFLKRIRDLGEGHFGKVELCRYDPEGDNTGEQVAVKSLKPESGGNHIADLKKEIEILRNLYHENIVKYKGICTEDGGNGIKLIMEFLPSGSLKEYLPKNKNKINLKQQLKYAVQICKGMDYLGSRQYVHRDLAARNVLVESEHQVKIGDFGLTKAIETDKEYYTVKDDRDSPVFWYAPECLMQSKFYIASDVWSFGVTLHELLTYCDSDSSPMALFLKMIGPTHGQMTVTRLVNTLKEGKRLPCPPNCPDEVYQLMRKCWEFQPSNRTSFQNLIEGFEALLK
Summary of the method: (§1)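 Catalytic-domain human JAK1 (GST-tagged, aa 850-1154) or His-tagged JAK2, baculovirus-expressed, phosphorylated 1 µM biotinylated TK peptide at Km ATP (JAK1 7 µM, 10 mM MgCl2, 50 nM SEB; JAK2 4 µM, 5 mM MgCl2) in pH 7.0 Hepes, 20-30 min RT. EDTA stop; overnight streptavidin-XL665/cryptate HTRF read.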

JAK2 = target: T2, JAK2 (Homo sapiens, UniProt O60674); assay: JAK kinase assay (HTRF, phosphorylation of synthetic peptide), JAK2; conditions: catalytic domain, ATP at Km (4 μM); read-out: JAK2 kinase inhibitory activity (EC50)
T2 construct: All four purified enzymes contain only the catalytic domain; His (N); purchased Carna Biosciences, Inc; host or cells: baculovirus expression system
T2 sequence (O60674 849-1124 limits assumed): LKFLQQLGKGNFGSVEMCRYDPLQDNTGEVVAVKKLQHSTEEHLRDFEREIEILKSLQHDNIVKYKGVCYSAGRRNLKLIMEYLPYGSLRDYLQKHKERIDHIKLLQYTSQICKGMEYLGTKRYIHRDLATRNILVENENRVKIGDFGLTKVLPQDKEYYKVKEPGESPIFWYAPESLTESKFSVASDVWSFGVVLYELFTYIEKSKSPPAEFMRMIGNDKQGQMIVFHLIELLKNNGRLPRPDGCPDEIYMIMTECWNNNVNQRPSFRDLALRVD
Summary of the method: as §1

JAK3 = target: T3, JAK3 (Homo sapiens, UniProt P52333); assay: JAK kinase assay (HTRF, phosphorylation of synthetic peptide), JAK3; conditions: catalytic domain, ATP at Km (2 μM); read-out: JAK3 kinase inhibitory activity (EC50)
T3 construct: All four purified enzymes contain only the catalytic domain; His (N); purchased Carna Biosciences, Inc; host or cells: baculovirus expression system
T3 sequence (P52333 822-1111 limits assumed): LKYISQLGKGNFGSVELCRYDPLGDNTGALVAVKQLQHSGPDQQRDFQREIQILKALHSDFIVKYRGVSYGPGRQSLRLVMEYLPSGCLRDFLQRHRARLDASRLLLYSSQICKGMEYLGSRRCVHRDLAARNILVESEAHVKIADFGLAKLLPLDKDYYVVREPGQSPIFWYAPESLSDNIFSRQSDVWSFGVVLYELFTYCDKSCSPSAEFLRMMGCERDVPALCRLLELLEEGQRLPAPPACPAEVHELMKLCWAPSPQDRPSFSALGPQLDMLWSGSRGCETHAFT

TYK2 = target: T4, TYK2 (Homo sapiens, UniProt P29597); assay: JAK kinase assay (HTRF, phosphorylation of synthetic peptide), TYK2; conditions: catalytic domain, ATP at Km (13 μM); read-out: TYK2 kinase inhibitory activity (EC50)
T4 construct: JAK1 (aa 850-1154) and TYK2 (aa 871-1187) are expressed with an N-terminally fused GST-tag; GST (N); purchased Carna Biosciences, Inc; host or cells: baculovirus expression system
T4 sequence (P29597 871-1187): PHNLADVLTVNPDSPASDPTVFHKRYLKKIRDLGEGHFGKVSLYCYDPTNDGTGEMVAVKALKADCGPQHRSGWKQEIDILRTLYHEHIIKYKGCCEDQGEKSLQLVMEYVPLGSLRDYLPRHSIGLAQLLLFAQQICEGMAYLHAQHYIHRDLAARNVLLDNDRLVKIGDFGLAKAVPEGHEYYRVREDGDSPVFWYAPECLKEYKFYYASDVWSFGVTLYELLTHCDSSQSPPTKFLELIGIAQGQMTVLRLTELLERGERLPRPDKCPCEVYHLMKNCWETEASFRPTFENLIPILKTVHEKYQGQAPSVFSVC
Summary of the method: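 1 µM biotinylated TK peptide at Km ATP in pH 7.0 Hepes, 20-30 min RT. EDTA stop; overnight streptavidin-XL665/cryptate HTRF read.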

| SMILES | EC50 (JAK1) [nM] | EC50 (JAK2) [nM] | EC50 (JAK3) [nM] | EC50 (TYK2) [nM] |
| --- | --- | --- | --- | --- |
| CN(CC1CC1(F)F)S(=O)(=O)N1CCN(c2ncnc3[nH]ccc23)CC12CC2 (centres unmarked) [Example 86, N-[(2,2-difluorocyclopropyl)methyl]-N-methyl-5-(7H-pyrrolo[2,3-d]pyrimidin-4-yl)-5,8-diazaspiro[2.5]octane-8-sulfonamide] | < 100 | < 100 | < 100 | < 100 |
| C=C1CCC(CN(C)S(=O)(=O)N2CCN(c3ncnc4[nH]ccc34)CC23CC3)CC1 [Example 87, N-methyl-N-[(4-methylenecyclohexyl)methyl]-5-(7H-pyrrolo[2,3-d]pyrimidin-4-yl)-5,8-diazaspiro[2.5]octane-8-sulfonamide] | < 100 | < 100 | < 100 | 100 to 500 |
| CN(CC1CC(=O)C1)S(=O)(=O)N1CCN(c2ncnc3[nH]ccc23)CC12CC2 [Example 88, N-methyl-N-[(3-oxocyclobutyl)methyl]-5-(7H-pyrrolo[2,3-d]pyrimidin-4-yl)-5,8-diazaspiro[2.5]octane-8-sulfonamide] | < 100 | < 100 | 100 to 500 | 100 to 500 |
| CN(CC1CCOCC1)S(=O)(=O)N1CCN(c2ncnc3[nH]ccc23)CC12CC2 [Example 89, N-methyl-5-(7H-pyrrolo[2,3-d]pyrimidin-4-yl)-N-(tetrahydropyran-4-ylmethyl)-5,8-diazaspiro[2.5]octane-8-sulfonamide] | < 100 | < 100 | 100 to 500 | 100 to 500 |
| CN(Cc1cccc(S(N)(=O)=O)c1)S(=O)(=O)N1CCN(c2ncnc3[nH]ccc23)CC12CC2 [Example 90, N-methyl-5-(7H-pyrrolo[2,3-d]pyrimidin-4-yl)-N-[(3-sulfamoylphenyl)methyl]-5,8-diazaspiro[2.5]octane-8-sulfonamide] | < 100 | < 100 | < 100 | < 100 |
| CN(Cc1ccc(S(N)(=O)=O)cc1)S(=O)(=O)N1CCN(c2ncnc3[nH]ccc23)CC12CC2 [Example 91, N-methyl-5-(7H-pyrrolo[2,3-d]pyrimidin-4-yl)-N-[(4-sulfamoylphenyl)methyl]-5,8-diazaspiro[2.5]octane-8-sulfonamide] | < 100 | < 100 | < 100 | < 100 |
| CC(C)N(C)S(=O)(=O)N1CCN(c2ncnc3[nH]ccc23)CC12CC2 [Example 94, N-isopropyl-N-methyl-5-(7H-pyrrolo[2,3-d]pyrimidin-4-yl)-5,8-diazaspiro[2.5]octane-8-sulfonamide] | < 100 | < 100 | 100 to 500 | > 500 |
| CCN(C(C)C)S(=O)(=O)N1CCN(c2ncnc3[nH]ccc23)CC12CC2 [Example 95, N-ethyl-N-isopropyl-5-(7H-pyrrolo[2,3-d]pyrimidin-4-yl)-5,8-diazaspiro[2.5]octane-8-sulfonamide] | 100 to 500 | < 100 | 100 to 500 | > 500 |
| CC(C)N(CC#N)S(=O)(=O)N1CCN(c2ncnc3[nH]ccc23)CC12CC2 [Example 96, N-(cyanomethyl)-N-isopropyl-5-(7H-pyrrolo[2,3-d]pyrimidin-4-yl)-5,8-diazaspiro[2.5]octane-8-sulfonamide] | < 100 | < 100 | 100 to 500 | > 500 |
| CC(C)N(CCO)S(=O)(=O)N1CCN(c2ncnc3[nH]ccc23)CC12CC2 [Example 97, N-(2-hydroxyethyl)-N-isopropyl-5-(7H-pyrrolo[2,3-d]pyrimidin-4-yl)-5,8-diazaspiro[2.5]octane-8-sulfonamide] | < 100 | < 100 | 100 to 500 | > 500 |
| CN(C1CCC1)S(=O)(=O)N1CCN(c2ncnc3[nH]ccc23)CC12CC2 [Example 98, N-cyclobutyl-N-methyl-5-(7H-pyrrolo[2,3-d]pyrimidin-4-yl)-5,8-diazaspiro[2.5]octane-8-sulfonamide] | < 100 | < 100 | 100 to 500 | 100 to 500 |
| CCN(C1CCC1)S(=O)(=O)N1CCN(c2ncnc3[nH]ccc23)CC12CC2 [Example 99, N-cyclobutyl-N-ethyl-5-(7H-pyrrolo[2,3-d]pyrimidin-4-yl)-5,8-diazaspiro[2.5]octane-8-sulfonamide] | < 100 | < 100 | 100 to 500 | < 100 |
| N#CCN(C1CCC1)S(=O)(=O)N1CCN(c2ncnc3[nH]ccc23)CC12CC2 [Example 100, N-(cyanomethyl)-N-cyclobutyl-5-(7H-pyrrolo[2,3-d]pyrimidin-4-yl)-5,8-diazaspiro[2.5]octane-8-sulfonamide] | < 100 | < 100 | < 100 | < 100 |
| O=S(=O)(N(CCO)C1CCC1)N1CCN(c2ncnc3[nH]ccc23)CC12CC2 [Example 101, N-cyclobutyl-N-(2-hydroxyethyl)-5-(7H-pyrrolo[2,3-d]pyrimidin-4-yl)-5,8-diazaspiro[2.5]octane-8-sulfonamide] | < 100 | < 100 | < 100 | < 100 |
| N#CCCCN(C1CCC1)S(=O)(=O)N1CCN(c2ncnc3[nH]ccc23)CC12CC2 [Example 102, N-(3-cyanopropyl)-N-cyclobutyl-5-(7H-pyrrolo[2,3-d]pyrimidin-4-yl)-5,8-diazaspiro[2.5]octane-8-sulfonamide] | < 100 | < 100 | < 100 | 100 to 500 |
| COCCN(C1CCC1)S(=O)(=O)N1CCN(c2ncnc3[nH]ccc23)CC12CC2 [Example 103, N-cyclobutyl-N-(2-methoxyethyl)-5-(7H-pyrrolo[2,3-d]pyrimidin-4-yl)-5,8-diazaspiro[2.5]octane-8-sulfonamide] | < 100 | < 100 | 100 to 500 | 100 to 500 |
| O=S(=O)(N(CCn1ccnc1)C1CCC1)N1CCN(c2ncnc3[nH]ccc23)CC12CC2 [Example 104, N-cyclobutyl-N-(2-imidazol-1-ylethyl)-5-(7H-pyrrolo[2,3-d]pyrimidin-4-yl)-5,8-diazaspiro[2.5]octane-8-sulfonamide] | < 100 | < 100 | 100 to 500 | 100 to 500 |
| CN(C)CCCN(C1CCC1)S(=O)(=O)N1CCN(c2ncnc3[nH]ccc23)CC12CC2 [Example 105, N-cyclobutyl-N-[3-(dimethylamino)propyl]-5-(7H-pyrrolo[2,3-d]pyrimidin-4-yl)-5,8-diazaspiro[2.5]octane-8-sulfonamide] | 100 to 500 | < 100 | > 500 | > 500 |
| O=S(=O)(N(CCN1CCOCC1)C1CCC1)N1CCN(c2ncnc3[nH]ccc23)CC12CC2 [Example 106, N-cyclobutyl-N-(2-morpholinoethyl)-5-(7H-pyrrolo[2,3-d]pyrimidin-4-yl)-5,8-diazaspiro[2.5]octane-8-sulfonamide] | < 100 | < 100 | 100 to 500 | > 500 |
| CC(C#N)N(C1CCC1)S(=O)(=O)N1CCN(c2ncnc3[nH]ccc23)CC12CC2 (centres unmarked) [Example 107, N-(1-cyanoethyl)-N-cyclobutyl-5-(7H-pyrrolo[2,3-d]pyrimidin-4-yl)-5,8-diazaspiro[2.5]octane-8-sulfonamide] | < 100 | < 100 | < 100 | 100 to 500 |
| N#CCN(CCO)S(=O)(=O)N1CCN(c2ncnc3[nH]ccc23)CC12CC2 [Example 108, N-(cyanomethyl)-N-(2-hydroxyethyl)-5-(7H-pyrrolo[2,3-d]pyrimidin-4-yl)-5,8-diazaspiro[2.5]octane-8-sulfonamide] | < 100 | < 100 | < 100 | 100 to 500 |
| CN(CCO)S(=O)(=O)N1CCN(c2ncnc3[nH]ccc23)CC12CC2 [Example 109, N-(2-hydroxyethyl)-N-methyl-5-(7H-pyrrolo[2,3-d]pyrimidin-4-yl)-5,8-diazaspiro[2.5]octane-8-sulfonamide] | < 100 | < 100 | 100 to 500 | 100 to 500 |
| N#CCCCN(CCO)S(=O)(=O)N1CCN(c2ncnc3[nH]ccc23)CC12CC2 [Example 110, N-(3-cyanopropyl)-N-(2-hydroxyethyl)-5-(7H-pyrrolo[2,3-d]pyrimidin-4-yl)-5,8-diazaspiro[2.5]octane-8-sulfonamide] | < 100 | < 100 | < 100 | 100 to 500 |
